Laboratory results reported in patent US6482799B1, “Self-preserving multipurpose ophthalmic solutions incorporating a polypeptide antimicrobial” (The Regents of the University of California, priority 1999, dated 2002).

Columns and labels:
[1] = Toxicity study, topical ocular administration
Protocol: The objective of this study was to determine if the treatment regimen proposed for the efficacy study of the defensin formulations caused target organ toxicity. This study is not intended to support application for research or marketing permits for products regulated by governmental agencies. The purpose of this study is to provide range-finding data is therefore, not within the scope of Good Laboratory Practice Guidelines.
Rabbits were treated four times on Day 1 at ˜1 hour intervals, and twice daily at ˜12 hour intervals administered on Days 2 through 4.
Dosing volumes were 0.1 mL/mouse (intravaginal), 0.1 mL/mouse (intraperitoneal), and 20 μL/rabbit. The study lasted 5 days, with day 1 the first day of dose administration.
The dose formulations were supplied in pyrogen-free saline.

[2] = tested on: Pseudomonas aeruginosa (ATCC 27853); assay: Protocol 1 kill curve / MIC, 1 hour at 37° C. in glass tubes; format: cell-based
Protocol: (§1) This protocol is used to develop dose-response (kill) curves to calculate the minimal inhibitory concentration of an indolicidin (e.g., L-indolicidin (L-IND)) when formulated in a commercially available phosphate buffered saline (PBS) solution. In addition, for comparative purposes, kill curves are established for the following three commonly available commercial lens-care products containing different preservatives:
An initial dose range experiment is performed to determine a suitable dose range for the final experiment. The indolicidin (e.g., L-IND) is tested in the preliminary toxicity experiment at 13 different dose levels in a range between 500 μg/ml and 0.125 μg/ml. The 3 control samples with preservatives are tested at 13 different dose levels with the highest dose level representing the undiluted solution. […]
(§2) Viable counts of the bacteria are performed by 10-fold serial dilutions in sterile PBS and by plating 0.1 ml aliquots on nutrient agar plates. […] The plates are incubated overnight at 37° C. and colonies are counted and recorded. […]
(§3) Survival is expressed as number of surviving bacteria (CFU/ml) for each dilution of the test article and control solutions. The lowest dose of the test article that results in complete kill of the test organism, compared to the non-exposed control, is determined to be the MIC value. […]

Escherichia coli ML35 = assay: Dose response and kinetics of antimicrobial activity in 10 mM sodium phosphate buffer; format: cell-based
Protocol: The time course and dose-dependence of the antimicrobial activity of an antimicrobial peptide can be determined by incubating a microorganism with the antimicrobial peptide and determining the viability after various times of incubation or after treatment with various concentrations of the antimicrobial peptide.
Exemplary assays using indolicidin and indolicidin analogs were performed in 10 mM sodium phosphate buffer, pH 7.4, at 37° C., as described by Selsted et al. (1985) Infect. Immun. 45:150-154, which is incorporated herein by reference.
The dose response of a gram negative bacterial strain, Escherichia coli ML35, and a gram positive bacterial strain, Staphylococcus aureus 502A, to indolicidin was determined by incubating 2×10^6 colony forming units (CFU) of log phase bacteria with 0-25 μg/mL of indolicidin for two hours. Following incubation, the cultures were serially diluted and plated on nutrient agar. Viability of both gram negative and gram positive bacteria was reduced by at least four orders of magnitude in incubations containing 10 μg/mL of indolicidin. E. coli was more susceptible than S. aureus, as >95% of the input cells were killed after 2 hr incubation with 2.5 μg/mL indolicidin. […]
The kinetics of indolicidin antimicrobial activity was evaluated by incubating 2×10^6 E. coli with […] of indolicidin for 1 to 40 min. […]

[3] = tested on: Escherichia coli (ATCC 8739); assay: Protocol 1 kill curve / MIC, 1 hour at 37° C.; format: cell-based; conditions: 6.25 μg/ml, 10 mM sodium phosphate buffer
Protocol: as §1
The stock solutions are diluted in a 2-fold fashion by transferring 1 ml of each stock solution to 1 ml of appropriate diluent in sterile glass tubes (100×13 mm). Twelve additional 2-fold dilutions are made by transferring 1 ml aliquots of each dilution to 1 ml diluent. The diluent for all commercial lens-care products is PBS. […]
as §2, §3

**Q.** Which “deaths or clinical signs of toxicity” value ([1]; 10, 100 or 1000 μg/mL, BPN-A-amide 30, 300 or 3000 μg/mL) does the source give for `CC[C@H](C)[C@H](N)C(=O)N[C@@H](CC(C)C)C(=O)N1CCC[C@H]1C(=O)N[C@@H](Cc1c[nH]c2ccccc12)C(=O)N[C@@H](CCCCN)C(=O)N[C@@H](Cc1c[nH]c2ccccc12)C(=O)N1CCC[C@H]1C(=O)N[C@@H](Cc1c[nH]c2ccccc12)C(=O)N[C@@H](Cc1c[nH]c2ccccc12)C(=O)N1CCC[C@H]1C(=O)N[C@@H](Cc1c[nH]c2ccccc12)C(=O)N[C@@H](CCCNC(=N)N)C(=O)N[C@@H](CCCNC(=N)N)C(N)=O` [L-indolicidin, H2N-ILPWKWPWWPWRR-CONH2] here?
**A.** No deaths or biologically significant clinical signs of toxicity

**Q.** What about the “toxic changes in rabbit eyes (histology)” value ([1]; 20 μL/rabbit at 10, 100 or 1000 μg/mL, BPN-A-amide at 30, 300 or 3000 μ/mL) of the same compound?
**A.** No toxic changes

**Q.** What about the survival ([2]; all dose levels 100-6.25 μg/ml, 10 mM phosphate buffer pH 7.4, 2.01×10^5 CFU/ml) of the same compound?
**A.** 100%

**Q.** What about the survival ([2]; all dose levels 5,000-1.25 μg/ml in PBS, 1 hour 37° C., 5.9×10^5 CFU/ml) of the same compound?
**A.** 100%

**Q.** And the Viability reduction (Escherichia coli ML35; 10 μg/mL indolicidin, 2 hours, 10 mM sodium phosphate buffer pH 7.4, 37° C., 2×10^6 CFU)?
**A.** at least four

**Q.** And the culture viability (Escherichia coli ML35; 25 μ/mL indolicidin, after 20 min)?
**A.** essentially was sterilized

**Q.** And the survival [3]?
**A.** 15%
